We go through 2 molecules from ChEMBL document CHEMBL1129456, “Synthesis and evaluation of two positron-labeled nitric oxide synthase inhibitors, S-[11C]methylisothiourea and S-(2-[18F]fluoroethyl)isothiourea, as potential positron emission tomography tracers” (J Med Chem, 1996).

In general, IC50 refers to the concentration that gives 50% inhibition. High values mean weaker potency, low ones greater potency.

A short description of series [1]: Partition coefficient measured by octanol/water extraction at pH 6.8. Type of series: physicochemical.
In series [2] the target is Nitric oxide synthase, inducible (Homo sapiens, UniProt P35228). The series can be described thus: The compound was evaluated for the inhibitory potencies using human Inducible nitric oxide synthase (hiNOS).
Sequence of Nitric oxide synthase, inducible (P35228 whole entry): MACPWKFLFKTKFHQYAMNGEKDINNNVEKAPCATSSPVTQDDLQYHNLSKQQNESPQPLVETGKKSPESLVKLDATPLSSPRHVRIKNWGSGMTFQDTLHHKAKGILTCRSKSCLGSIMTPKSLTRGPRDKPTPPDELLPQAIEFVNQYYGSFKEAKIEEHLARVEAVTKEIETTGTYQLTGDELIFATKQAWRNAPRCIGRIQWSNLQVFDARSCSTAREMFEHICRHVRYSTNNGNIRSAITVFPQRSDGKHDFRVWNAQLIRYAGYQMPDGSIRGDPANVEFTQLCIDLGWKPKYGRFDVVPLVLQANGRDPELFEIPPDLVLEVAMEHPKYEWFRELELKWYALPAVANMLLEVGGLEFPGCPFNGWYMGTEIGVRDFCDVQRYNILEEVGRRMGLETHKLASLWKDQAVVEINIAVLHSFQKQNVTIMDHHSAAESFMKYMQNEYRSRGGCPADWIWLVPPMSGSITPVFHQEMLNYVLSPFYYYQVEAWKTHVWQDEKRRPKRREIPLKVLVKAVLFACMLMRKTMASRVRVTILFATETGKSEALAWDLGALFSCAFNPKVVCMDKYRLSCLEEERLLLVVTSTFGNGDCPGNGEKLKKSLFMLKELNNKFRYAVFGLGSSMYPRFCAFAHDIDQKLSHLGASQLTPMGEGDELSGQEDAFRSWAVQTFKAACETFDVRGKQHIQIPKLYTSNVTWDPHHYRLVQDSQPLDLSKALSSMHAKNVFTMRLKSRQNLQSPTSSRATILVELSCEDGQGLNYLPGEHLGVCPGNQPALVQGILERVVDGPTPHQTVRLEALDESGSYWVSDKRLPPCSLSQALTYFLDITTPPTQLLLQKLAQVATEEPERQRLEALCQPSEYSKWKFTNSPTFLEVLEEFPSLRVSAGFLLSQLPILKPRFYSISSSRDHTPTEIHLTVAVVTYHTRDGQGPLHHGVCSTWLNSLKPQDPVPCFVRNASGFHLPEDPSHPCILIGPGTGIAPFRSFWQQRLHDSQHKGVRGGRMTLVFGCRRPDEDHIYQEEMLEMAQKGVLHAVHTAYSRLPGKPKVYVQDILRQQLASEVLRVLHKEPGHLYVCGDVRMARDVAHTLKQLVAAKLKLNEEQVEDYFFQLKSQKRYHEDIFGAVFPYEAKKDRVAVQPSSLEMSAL
For another series, the target named is T1, Nitric oxide synthase 3 (Homo sapiens, UniProt P29474).
T1 sequence (P29474 whole entry): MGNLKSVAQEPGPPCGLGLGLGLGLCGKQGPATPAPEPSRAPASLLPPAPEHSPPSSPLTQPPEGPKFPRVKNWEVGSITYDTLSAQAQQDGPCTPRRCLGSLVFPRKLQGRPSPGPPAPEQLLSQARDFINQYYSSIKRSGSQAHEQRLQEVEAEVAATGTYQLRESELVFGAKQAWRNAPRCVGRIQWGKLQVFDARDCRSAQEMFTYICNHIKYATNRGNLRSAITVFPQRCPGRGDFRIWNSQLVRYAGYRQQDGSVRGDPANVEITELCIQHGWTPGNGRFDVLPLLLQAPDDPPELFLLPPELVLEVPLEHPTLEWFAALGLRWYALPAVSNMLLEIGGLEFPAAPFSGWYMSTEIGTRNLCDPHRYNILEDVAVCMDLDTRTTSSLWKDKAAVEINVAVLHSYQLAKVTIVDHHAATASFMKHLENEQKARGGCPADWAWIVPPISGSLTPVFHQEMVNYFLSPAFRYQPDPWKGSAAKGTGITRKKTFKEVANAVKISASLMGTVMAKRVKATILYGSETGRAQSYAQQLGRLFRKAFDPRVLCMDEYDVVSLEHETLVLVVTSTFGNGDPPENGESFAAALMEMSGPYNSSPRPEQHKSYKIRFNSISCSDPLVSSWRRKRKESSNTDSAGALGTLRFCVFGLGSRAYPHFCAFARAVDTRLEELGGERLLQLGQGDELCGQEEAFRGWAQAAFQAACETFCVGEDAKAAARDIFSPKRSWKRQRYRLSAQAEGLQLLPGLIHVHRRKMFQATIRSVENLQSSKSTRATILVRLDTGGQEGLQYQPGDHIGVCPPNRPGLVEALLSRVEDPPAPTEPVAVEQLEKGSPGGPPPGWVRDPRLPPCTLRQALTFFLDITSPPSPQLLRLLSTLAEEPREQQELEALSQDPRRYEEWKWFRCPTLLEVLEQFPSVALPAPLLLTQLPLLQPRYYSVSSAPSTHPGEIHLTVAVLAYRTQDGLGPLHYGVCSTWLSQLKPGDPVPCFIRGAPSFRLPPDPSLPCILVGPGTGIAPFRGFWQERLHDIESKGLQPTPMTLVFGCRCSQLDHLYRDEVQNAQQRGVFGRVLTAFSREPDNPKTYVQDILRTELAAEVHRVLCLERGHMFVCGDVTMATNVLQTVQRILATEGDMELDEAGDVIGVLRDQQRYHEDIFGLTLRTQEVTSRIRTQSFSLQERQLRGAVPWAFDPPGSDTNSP
The series can be described thus: The compound was evaluated for the inhibitory potencies using human Endothelial nitric oxide synthase.

`[11CH3]SC(=N)N` displayed a logD in series [1] of -0.04.

For the molecule `CSC(=N)N`, the values for the IC50 (in series [2]; against Nitric oxide synthase 3) were 3 µM and 7 µM, respectively.
